# Assays:
# chick CAM = assay: CAM (chick chorio-allantoic membrane) assay; type: in vivo; details: 500 nM and 250 nM
# Procedure: (A) Chick CAM assays were used to observe the effect of Compound 1 on angiogenesis in vivo. 1 mm^2 window was made in 8 days old chicken eggs to expose the CAM, and a gelatin disc ([…]) treated with vehicle (0.1% DMSO), sunitinib and Compound 1 at a indicated concentrations were placed on the CAM surface. Post 4 days of incubation, the discs and associated CAM were photographed and excised out, for hemoglobin estimation by drapkin's reagent. (B) Blood vessel density was calculated and Hb. concentration was measured and representative graph was plotted for the control and treatment group and data are represented as mean±SEM with significant difference from control at *p<0.05, **p<0.01 and ***p<0.001.
# The eggs were incubated horizontally for 3 days at 37° C. in a 60% humidified atmosphere, using a hybridization incubator (combi-SV 12) with one hour scheduled rotation. Post 3 days of incubation, 2-3 mL of albumin was aspirated from the acute pole of the egg to create false air sac directly over the CAM. Post fertilization (Day 8), a fine blade was used to make an approximate 0.5 cc square incision on the eggshell under sterile conditions and the eggshell window fragment was removed to access the CAM beneath. A piece of gelatin sponge embedded in Compound 1 (500 nM and 250 nM) and sunitinib (2 μM) individually were placed on the CAM of the chicken embryo and incubated for 12 days. Sterile parafilm tape was used to seal back the window and the eggs were further incubated without the rotation setting. After 12 days of incubation the CAM integration was assessed by visual inspection and photographed with a digital camera (Canon EOS); the CAM membrane along with gelatin sponge were harvested and its hemoglobin (Hb.) estimation was done by Drabkin's method according to the manufacturer's protocol (Sigma, St. Louis, Mo.). Absorbance was measured at 540 nm and hemoglobin concentration was calculated.
# HUVECs = assay: Wound healing (scratch) migration assay; type: cell-based, human; details: for wound closure: 12 h
# Procedure: FIG. 4 represents In vitro wound closure assay showing effect of Compound 1 migration of HUVECs. (A) ECs were incubated with 2.5% FBS in the presence of VEGF, sunitinib and Compound 1 at the indicated concentrations for 24 h after linear scratched wounds were created in the confluent cells. Post treatment photographs were taken at 0 hr, 12 h and 24 h using an inverted microscope at 10×magnification. (B) Data were quantified using Image J software and graphs were plotted by calculating the % migration of that vehicle treated cells (control). Compound 1 inhibits the wound closure by ECs in a dose dependent manner. The values represent the mean±SEM from (n=3) independent experiments with significant difference compared from control at *p<0.05.
# As per previous reports, some anti-angiogenic compounds also show anti-migratory effect by modulating the expression of proteins responsible for blood vessels formation. A Scratch was made to the confluent endothelial cells containing VEGF (50 ng/mL) and sunitinib (50 nM) as a positive and negative control respectively and Compound 1 at 250 nM and 125 nM as a test compound. […] This might contribute to its potent anti-angiogenic effect.
# Endothelial cells were grown inside 6-well plate at a confluency rate of 90%. And then with the help of 200 μL tip a straight line scratch was made in the middle of the grown ECs. After giving a gentle wash with 1×PBS, control group received vehicle in 2.5% FBS media. VEGF at 50 ng/mL as a positive control and sunitinib at 50 nM concentration was used as a negative control. Compound 1 at a dose concentration of 250 nM and 125 nM were used onto the wounded cells to observe its anti-migratory effect. After 0 h, 12 h and 24 h of post treatment the wound closure area was observed and micrographed using an inverted microscope (Olympus, Centre Valley, Pa., USA) and were analysed by Image J software. Control well at 100% was used to express inhibition percentage and the assay was performed for three-five times independently.
# phospho-VEGFR2 = assay: Immunoblotting of treated HUVECs, phospho-VEGFR2; type: cell-based, human; details: 250 nM, 6 h
# Procedure: (§1) (A) Serum-starved HUVECs were treated with control (0.1% DMSO), sunitinib and Compound 1 at a given concentrations and then incubated for 6 h. The expression level of phospho-VEGFR2 and GAPDH (housekeeping protein) was analyzed by immunoblotting. (B) Blots were quantified with Image-J software and the bar graphs represent the relative density of phospho-VEGFR2 normalized with GAPDH and the data are represented as mean±SEM with significant difference compared with control at *p<0.05. (D) Protein angiogenesis array showing up-regulation of anti-angiogenic protein and down-regulation of pro-angiogenic proteins on endothelial cell treated with Compound 1 at 260 nM.
# (§2) Whole cell lysates of endothelial cells at 6 h of treatment with Compound 1 (250 nM) and sunitinib (50 nM) were prepared using the RIPA-lysis buffer. Proteins were fractionated and resolved on 8% SDS-PAGE gels and transferred onto PVDF membranes (Millipore). After incubation in blocking buffer (5% BSA in 1×TBST) for 1 h the membranes were incubated with primary antibodies specific for p-Akt and p-Src. GAPDH was used as housekeeping and loading control. The blots were then incubated with specific HRP-conjugated secondary antibodies and bands were visualized using ECL (Millipore) on Image Quant (LAS4010) chemiluminescence detection system. The band intensities were quantified using My Image Analysis software.
# Src-kinase = assay: Immunoblotting of treated HUVECs, Src-kinase; type: cell-based, human; details: 250 nM, 6 h
# Procedure: as §1, §2
# Balb/c mice = assay: Matrigel plug assay; type: in vivo
# Procedure: (A) Post 7 days treatment of control (0.1% DMSO), sunitinib and Compound 1 at a given concentration, the mice was sacrificed and representative Matrigel plugs were excised and photographed. (B) Hemoglobin estimation was performed using drapkin's reagent and graph was plotted with data that are represented as mean±SEM from three independent experiments with significant difference from control at *p<0.05 using t-test analysis.
# Compound 1 ability to modulate neovascularization was evaluated by matrigel plug assay, using mouse-VEGF and bFGF (R&D systems, Minneapolis) as stimulus. 300 μL of matrigel (Corning Inc., Corning, N.Y., USA) were allowed to liquefy at 4° C., supplemented with either VEGF […], bFGF […] and heparin (10 mg/mL) as a control or with sunitinib […] as a positive control. All groups and test groups having similar condition along with Compound 1 (750 nM) were carefully mixed with pre-chilled pipette tips to prevent aeration and gelatinization. […] Matrigel plugs were excised after photographs were taken and angiogenic response was evaluated by spectrophotometric measurement of hemoglobin content using the Drabkin's method according to the manufacturer's protocol (Cat no. D5941-6VL; Sigma, St. Louis, Mo.). Absorbance was measured at 540 nm and hemoglobin concentration was calculated.
smiles,measurement,setting,value
"CCOC(=O)C1N=C1CCc1ccc(OC)cc1 (racemic) [Compound 1, Ethyl 3-(4-methoxyphenethyl)-2H-azirine-2-carboxylate]",blood vessels density,chick CAM,suppressed blood vessels density
same,hemoglobin content,chick CAM,50 to 60 µg/mL
same,wound closure,HUVECs; 125 nM,75%
same,wound closure,HUVECs; 250 nM,60%
same,migration,HUVECs; 24 h,complete migration
same,p-VEGFR2 expression,phospho-VEGFR2,marked reduction
same,Src-kinase expression,Src-kinase,marked reduction
same,blood vessels formation through implanted Matrigel,Balb/c mice; 750 nM,significant reduction in blood vessels formation
same,hemoglobin concentration,Balb/c mice; 750 nM in Matrigel,10 to 15 µg/mL

# Source: US20230234920A1, “Azirine Containing Compounds as Anti-Angiogenesis Agents and a Process for the Preparation Thereof” (COUNCIL OF SCIENTIFIC & INDUSTRIAL RESEARCH, priority 2020, published 2023)
